Experimental data from US10183011B2, “Anti-depression compounds” (Board of Regents of the University of Texas System, priority 2009, dated 2019).
Entries after “also recorded” stand apart in the source; their conditions may differ.

Assays:
[1] = system: TH+ dopaminergic neurons in the substantia nigra; experiment: MPTP model of Parkinson's disease, treatment before, during and after MPTP; type: in vivo, mouse (C57BL/6); details: 10 mg/kg i.p. twice daily; MPTP 30 mg/kg/day for 5 days
Description: FIG. 25A and FIG. 25B. Example 6a Compound (P7C3A20) Provides Therapeutic Benefit in Animal Model of Parkinson's Disease. Mice were treated with MPTP (30 mg/kg i.p.) or Vehicle only for 5 days and then immunohistochemically analyzed for tyrosine hydroxylase staining (TH) 21 days later (FIG. 25A). Treatment with MPTP and Vehicle (n=6) reduced the number of TH+ neurons in the substantia nigra (FIG. 25B) by approximately 50% (*, p=0.0002, Student's t test) relative to mice that received Vehicle only (n=8). […] TH+ neurons in the substantia nigra of every mouse were counted blind to treatment group by two investigators using Image J software, and results were averaged.
MPTP (1-methyl-4-phenyl-1,2,3,6-tetrahydropyridine) is a potent neurotoxin that selectively kills dopaminergic neurons in the substantia nigra of both mice and monkeys, causing a clinical picture resembling PD. The MPTP toxicity model can therefore be used to study the death of dopaminergic neurons with the goal of developing new treatments for PD based on neuroprotective strategies found to be effective in these neurons. […] TH-positive cells were counted in the substantia nigra area.

[2] = target: hERG channel (Homo sapiens, UniProt Q12809); experiment: hERG channel binding
[3] = system: G93A-SOD1 transgenic mice; experiment: G93A-SOD1 model of ALS, treatment from 40 days of age; type: in vivo, mouse
Description: FIG. 24A, FIG. 24B, FIG. 24C and FIG. 24D. Example 45 Compound (P7C3) Provides Therapeutic Benefit in Animal Model of Amyotrophic Lateral Sclerosis (ALS). Female G93A SOD1 mice (n=30 in each group, with all mice sibling matched across treatment groups) were treated with either vehicle or P7C3 (10 mg/kg i.p. twice daily) starting at 40 days of age. […] This score is determined as follows: ‘0’=full extension of hind legs away from lateral midline when the test mouse is suspended by its tail, and can hold this for 2 seconds, suspended 2-3 times; ‘1’=collapse or partial collapse of leg extension towards lateral midline (weakness) or trembling of hind legs during tail suspension; ‘2’=toes curl under at least twice during walking of 12 inches, or any part of foot drags along cage bottom/table; ‘3’=rigid paralysis or minimal joint movement, foot not being used for forward motion; and ‘4’=mouse cannot right itself within 30 seconds from either side. With further disease progression, vehicle-treated mice show the expected decline in retention time on the accelerating rotarod, with retention time averaged across 4 trials (FIG. 24C, open bars). P7C3-treated mice, however, show a consistent trend towards improved performance on this task after onset of disease (FIG. 24C, filled bars), with statistically significant improvement on days 131, 138 and 145 (*, p<0.001, Student's t Test). All graphical data shown above is mean+/−SEM, with statistical analysis conducted using the Student's t Test). As another means of disease progression, walking gait was evaluated. […] Front paws are dipped in red ink, and back paws are dipped in black ink. […] All analysis was conducted blind to treatment group.
P7C3 was intraperitoneally administered to female G93A-SOD1 transgenic mice using a treatment paradigm of 10 mg/kg P7C3 i.p. twice a day, compared to vehicle, starting at 40 days of age. This treatment scheme was selected based on standard protocols for initial proof of concept screens in these mice. To control for transgene copy number, mice are sibling matched between treatment groups, as per standard protocol. After initiation of P7C3 or vehicle treatment, date of onset of illness is determined by peak weight, and initial progression of disease is defined as the day at which mice fall to 10% below their maximum weight. Mice are also assessed daily by a standard determination of neurological severity score, with a score of 2 or worse for two consecutive days serving as an additional marker of illness progression. This score is determined blind to treatment group with the scoring system described in the legend for the figure. […]
As an initial test of efficacy in this disease model, we intraperitoneally administered P7C3 to female G93A-SOD1 transgenic mice using a treatment paradigm of 20 mg/kg/day P7C3, with vehicle administered to siblings, starting at 40 days of age. […] To control for transgene copy number, mice were sibling matched between treatment groups, as per standard protocol, and quantitative PCR was performed to ensure that the copy number was maintained within the normal range. After initiation of P7C3 or vehicle treatment, date of onset of illness was determined by peak weight, and initial progression of disease was defined as the day at which mice fell to 10% below their maximum weight. Mice were also assessed daily by a standard measure of neurological severity score ranging from 0-4, with a higher number reflecting greater neurologic impairment. […]

[4] = 10 mg/kg i.p. twice a day from 40 days of age

Sequence of hERG channel (Q12809 whole entry): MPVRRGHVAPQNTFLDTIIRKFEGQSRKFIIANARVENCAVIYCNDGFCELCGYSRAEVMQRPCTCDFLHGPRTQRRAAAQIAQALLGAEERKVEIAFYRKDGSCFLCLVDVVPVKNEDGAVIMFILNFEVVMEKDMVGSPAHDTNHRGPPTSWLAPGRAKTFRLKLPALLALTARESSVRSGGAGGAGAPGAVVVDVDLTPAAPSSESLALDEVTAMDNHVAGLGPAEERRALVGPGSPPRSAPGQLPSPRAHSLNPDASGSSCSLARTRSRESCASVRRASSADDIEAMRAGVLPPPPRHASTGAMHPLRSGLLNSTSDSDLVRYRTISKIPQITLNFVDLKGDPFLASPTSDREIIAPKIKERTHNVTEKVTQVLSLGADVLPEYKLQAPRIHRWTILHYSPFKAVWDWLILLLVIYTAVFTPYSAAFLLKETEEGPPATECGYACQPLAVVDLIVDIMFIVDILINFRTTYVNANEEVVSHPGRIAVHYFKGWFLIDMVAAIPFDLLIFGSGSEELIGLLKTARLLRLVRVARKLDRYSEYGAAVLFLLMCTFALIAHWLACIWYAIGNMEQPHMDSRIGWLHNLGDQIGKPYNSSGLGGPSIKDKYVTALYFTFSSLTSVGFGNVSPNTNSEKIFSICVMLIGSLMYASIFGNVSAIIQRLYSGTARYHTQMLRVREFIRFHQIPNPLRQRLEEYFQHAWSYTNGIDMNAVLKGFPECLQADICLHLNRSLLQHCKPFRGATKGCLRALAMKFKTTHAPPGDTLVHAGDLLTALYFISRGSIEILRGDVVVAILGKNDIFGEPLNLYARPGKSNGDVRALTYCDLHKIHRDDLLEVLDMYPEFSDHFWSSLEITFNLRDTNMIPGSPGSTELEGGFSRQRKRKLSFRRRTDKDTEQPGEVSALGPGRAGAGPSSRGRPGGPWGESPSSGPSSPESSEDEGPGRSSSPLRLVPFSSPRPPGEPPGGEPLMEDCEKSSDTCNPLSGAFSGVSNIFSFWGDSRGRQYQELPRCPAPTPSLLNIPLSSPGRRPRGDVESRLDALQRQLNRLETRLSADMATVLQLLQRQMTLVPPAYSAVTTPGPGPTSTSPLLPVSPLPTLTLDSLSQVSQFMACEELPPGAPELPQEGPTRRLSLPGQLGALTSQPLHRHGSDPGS

SMILES: COc1cccc(NCC(F)Cn2c3ccc(Br)cc3c3cc(Br)ccc32)c1 (stereo not shown) [Example P7C3A20, N-(3-(3,6-dibromo-9H-carbazol-9-yl)-2-fluoropropyl)-3-methoxyaniline]
- MPTP-mediated death of TH+ neurons in the substantia nigra [1]: significantly attenuates MPTP-mediated killing of substantia nigra dopaminergic neurons; also recorded: significantly attenuated
- hERG channel binding [2]: no hERG channel binding

SMILES: OC(CNc1ccccc1)Cn1c2ccc(Br)cc2c2cc(Br)ccc21 (stereo not shown) [Example P7C3]
- accelerating rotarod performance [3, 4]: significantly improved performance in the accelerating rotarod task
- age at neurological severity score of 2 [3, 4]: significantly delays the age at which G93A-SOD1 mice attain a neurological severity score of 2
- disease progression: time point of drop to 10% below maximum weight [3, 4]: slows disease progression
- walking gait (ink footprint) [3, 4]: preservation of normal gait on day 118
- survival ([3]; 20 mg/kg/day from 40 days of age): did not translate into increased survival of the animals
